{"source": "patent US7714047B2", "about": "“Process for producing aqueous fluoropolymer dispension and aqueous fluoropolymer dispersion” (Daikin Industries, Ltd., priority 2003, dated 2010)"}
{"experiment": "Octanol/water partition coefficient (log P) by HPLC elution time against a working curve of standard substances", "assay_type": "physicochemical", "conditions": "Tosoh ODS-120T column, acetonitrile/0.6% (by mass) aqueous HClO4 = 1/1, 40° C., UV 210 nm, standards heptanoic, octanoic, nonanoic and decanoic acid", "experimental": "The octanol/water partition coefficient is the coefficient of partition between 1-octanol and water and is expressed in terms of log P [wherein P represents the ratio between the fluorine-containing surfactant (A) concentration in octanol/fluorine-containing surfactant (A) concentration in water as found upon phase separation of a fluorine-containing surfactant (A)-containing octanol/water mixture (1:1)]. The octanol/water partition coefficient is determined by the measurement method according to OECD Guideline 107. In measuring the octanol/water partition coefficient, such methods as the flask shaking method and reversed-phase high performance liquid chromatography can generally be employed.\n(5) Octanol/Water Partition Coefficient\nStandard substances (heptanoic acid, octanoic acid, nonanoic acid and decanoic acid) each having a known octanol/water partition coefficient were subjected to HPLC under the following conditions: column: Tosoh ODS-120T column (ø4.6 mm×250 mm), eluent: acetonitrile/0.6% (by mass) aqueous solution of HClO4=1/1 (vol/vol %), flow rate: 1.0 ml/minute, sample size: 300 μL, column temperature: 40° C., detection light: UV 210 nm. A working curve showing the relation between the elution time and the known octanol/water partition coefficient was then constructed. The coefficient in question was determined from the elution time in HPLC for the sample solution based on that working curve."}
{"compound": "CF3CF2(CF2CF2)2COONH4 [Fluorine-containing surfactant 4]", "logP: octanol/water partition coefficient": 3.0}
{"compound": "N.O=C(O)C(F)(OC(F)(F)C(F)(F)C(F)(F)F)C(F)(F)F", "note": "(centres unmarked) [Fluorine-containing surfactant 2, C3F7OCF(CF3)COONH4]", "logP: octanol/water partition coefficient": 2.5}
{"compound": "N.O=C(O)C(F)(OC(F)(F)C(F)(OC(F)(F)F)C(F)(F)F)C(F)(F)F", "note": "(centres unmarked) [Fluorine-containing surfactant 3, CF3O(CF(CF3)CF2O)CF(CF3)COONH4]", "logP: octanol/water partition coefficient": 3.4}
{"compound": "N.O=C(O)C(F)(F)C(F)(F)C(F)(F)C(F)(F)C(F)(F)C(F)F", "note": "[Fluorine-containing surfactant 1, H(CF2CF2)3COONH4]", "logP: octanol/water partition coefficient": 2.4}
{"compound": "N.O=C(O)C(F)(F)C(F)(F)C(F)(F)C(F)(F)C(F)(F)C(F)(F)C(F)(F)F", "note": "[Fluorine-containing surfactant 5, CF3(CF2CF2)3COONH4]", "logP: octanol/water partition coefficient": 3.5}
